Results from ChEMBL document CHEMBL4419164, “Methods and compositions for inhibiting cnksr1” (2018).
The source made the active and inactive calls. The calls are words filed in the database; no cut-off is given here.

Tests used:
Pleckstrin = target: T1, Pleckstrin (Homo sapiens, UniProt P08567); experiment: Binding affinity to PLEK PH-domain (unknown origin) at 0.01 to 50 uM by SPR spectroscopy
T1 sequence (P08567 whole entry): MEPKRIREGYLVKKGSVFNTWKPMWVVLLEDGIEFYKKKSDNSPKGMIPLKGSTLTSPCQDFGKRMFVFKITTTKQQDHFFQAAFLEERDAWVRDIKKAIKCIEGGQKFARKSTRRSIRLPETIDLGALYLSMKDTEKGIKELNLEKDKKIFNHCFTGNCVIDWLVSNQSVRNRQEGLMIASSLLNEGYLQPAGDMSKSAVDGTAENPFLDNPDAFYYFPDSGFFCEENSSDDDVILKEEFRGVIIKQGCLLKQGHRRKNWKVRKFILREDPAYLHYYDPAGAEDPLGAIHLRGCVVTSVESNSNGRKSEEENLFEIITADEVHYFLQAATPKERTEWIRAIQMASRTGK

[1] = target: RAC-alpha serine/threonine-protein kinase (Homo sapiens, UniProt P31749); experiment: Binding affinity to AKT PH-domain (unknown origin) at 0.01 to 50 uM by SPR spectroscopy
RAC-alpha serine/threonine-protein kinase, sequence (P31749 whole entry): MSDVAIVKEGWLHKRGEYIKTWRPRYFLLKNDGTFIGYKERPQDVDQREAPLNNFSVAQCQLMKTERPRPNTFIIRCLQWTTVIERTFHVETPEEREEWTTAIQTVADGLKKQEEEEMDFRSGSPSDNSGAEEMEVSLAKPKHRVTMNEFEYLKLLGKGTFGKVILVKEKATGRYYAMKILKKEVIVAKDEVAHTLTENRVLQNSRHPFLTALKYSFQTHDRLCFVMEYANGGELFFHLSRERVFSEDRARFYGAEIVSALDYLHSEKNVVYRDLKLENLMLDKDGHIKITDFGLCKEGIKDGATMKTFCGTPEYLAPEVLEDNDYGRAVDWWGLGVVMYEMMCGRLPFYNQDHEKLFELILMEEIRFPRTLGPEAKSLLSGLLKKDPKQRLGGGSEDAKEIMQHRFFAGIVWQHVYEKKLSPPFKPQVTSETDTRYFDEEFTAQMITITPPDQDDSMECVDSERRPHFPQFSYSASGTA

[2] = target: T2, Connector enhancer of kinase suppressor of ras 1 (Homo sapiens, UniProt Q969H4); experiment: Binding affinity to CNKSR1 PH-domain (unknown origin) by SPR spectroscopy
T2 sequence (Q969H4 whole entry): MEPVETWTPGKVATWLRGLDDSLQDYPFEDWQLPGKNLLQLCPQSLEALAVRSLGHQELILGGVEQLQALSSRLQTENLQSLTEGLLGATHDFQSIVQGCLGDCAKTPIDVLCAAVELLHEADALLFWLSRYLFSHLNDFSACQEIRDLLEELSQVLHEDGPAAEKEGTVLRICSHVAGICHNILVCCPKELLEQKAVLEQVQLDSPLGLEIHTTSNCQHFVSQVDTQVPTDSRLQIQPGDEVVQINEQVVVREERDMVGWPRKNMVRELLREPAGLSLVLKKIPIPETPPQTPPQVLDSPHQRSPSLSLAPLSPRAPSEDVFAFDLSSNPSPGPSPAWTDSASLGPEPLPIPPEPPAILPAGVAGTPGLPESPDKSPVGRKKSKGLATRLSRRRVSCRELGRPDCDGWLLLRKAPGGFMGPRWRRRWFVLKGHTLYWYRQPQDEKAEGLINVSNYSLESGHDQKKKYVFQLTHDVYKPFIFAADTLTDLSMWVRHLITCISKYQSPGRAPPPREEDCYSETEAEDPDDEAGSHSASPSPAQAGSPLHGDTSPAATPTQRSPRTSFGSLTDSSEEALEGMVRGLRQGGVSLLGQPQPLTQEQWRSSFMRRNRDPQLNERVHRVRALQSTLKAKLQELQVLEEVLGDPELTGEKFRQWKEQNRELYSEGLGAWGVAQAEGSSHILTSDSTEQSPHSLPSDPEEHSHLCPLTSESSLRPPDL

[3] = Growth inhibition of human […] cells incubated for 3 days; type: functional; details: 72 h
[4] = target: T3, Connector enhancer of kinase suppressor of ras 1 (Homo sapiens) (UniProt Q969H4); experiment: Inhibition of CNKSR1 (unknown origin) assessed as reduction in inhibition of KRas signaling effectors by measuring GTP-RalA levels at 20 uM by cell based assay
T3 sequence (whole entry): T2 sequence (Q969H4 whole entry)

[5] = target: T3, Connector enhancer of kinase suppressor of ras 1 (Homo sapiens); experiment: Inhibition of CNKSR1 (unknown origin) assessed as reduction in inhibition of KRas signaling effectors by measuring p-MAPK levels at 20 uM by cell based assay
NCI-H2122 [6] = experiment: Growth inhibition of human NCI-H2122 cells incubated for 3 days; type: functional, cell-based; details: NCI-H2122, 72 h
[7] = target: T3, Connector enhancer of kinase suppressor of ras 1 (Homo sapiens); experiment: Inhibition of CNKSR1 (unknown origin) assessed as reduction in inhibition of KRas signaling effectors by measuring p-AKT levels at 20 uM by cell based assay
HCC95 = experiment: Growth inhibition of human HCC95 cells incubated for 3 days; type: functional, cell-based; details: HCC95, 72 h
HCC515 [8] = experiment: Growth inhibition of human HCC515 cells incubated for 3 days; type: functional, cell-based; details: HCC515, 72 h
[9] = Terminal half life in iv dosed mouse; type: ADME, organism-based; details: in vivo, read-out: beta t1/2
[10] = Half life in C57BL6 mouse at 250 mg/kg, po dosed via gavage as single administration; type: ADME, organism-based; details: in vivo
[11] = Cmax in C57BL6 mouse plasma at 250 mg/kg, po dosed via gavage as single administration; type: ADME, organism-based; parameters: dose 250 mg/kg, route oral
[12] = target: T3, Connector enhancer of kinase suppressor of ras 1 (Homo sapiens); experiment: Inhibition of GFP-tagged CNKSR1 (unknown origin) expressed in HEK293T cells assessed as inhibition of direct binding of CNKSR1 to mut-KRAS at 50 uM incubated for 4 hrs by fluorescence lifetime imaging microscopy; type: cell-based
[13] = target: T3, Connector enhancer of kinase suppressor of ras 1 (Homo sapiens); experiment: Inhibition of GFP-tagged CNKSR1 (unknown origin) expressed in HEK293T cells assessed as reduction in total mutant-KRas protein at 50 uM incubated for 4 hrs by confocal imaging assay; type: cell-based
[14] = target: T3, Connector enhancer of kinase suppressor of ras 1 (Homo sapiens); experiment: Inhibition of GFP-tagged CNKSR1 (unknown origin) expressed in HEK293T cells assessed as blocking of membrane colocalization of CNKSR1 and mutant-KRas at plasma membrane at 50 uM incubated for 4 hrs by confocal imaging assay; type: cell-based
A549 [15] = experiment: Antitumor activity against human A549 cells xenografted in nu/nu mouse assessed as reduction in tumor volume at 200 mg/kg, ip dosed daily for 8 days co-treated with 75 mg/kg, po erlotinib; type: functional, organism-based
A549 [16] = experiment: Antitumor activity against human A549 cells xenografted in nu/nu mouse assessed as reduction in tumor volume at 200 mg/kg, ip dosed daily for 8 days; type: functional, organism-based
HCC515 [17] = experiment: Growth inhibition of human HCC515 cells relative to control; type: functional, cell-based
NCI-H2122 [18] = experiment: Growth inhibition of human NCI-H2122 cells relative to control; type: functional, cell-based
A549 [19] = experiment: Growth inhibition of human A549 cells relative to control; type: functional, cell-based
[20] = target: Rho guanine nucleotide exchange factor TIAM1 (Homo sapiens) (UniProt Q13009); experiment: Binding affinity to TIAM1 PH-domain (unknown origin) at 0.01 to 50 uM by SPR spectroscopy
Rho guanine nucleotide exchange factor TIAM1 (Homo sapiens), sequence (Q13009 whole entry): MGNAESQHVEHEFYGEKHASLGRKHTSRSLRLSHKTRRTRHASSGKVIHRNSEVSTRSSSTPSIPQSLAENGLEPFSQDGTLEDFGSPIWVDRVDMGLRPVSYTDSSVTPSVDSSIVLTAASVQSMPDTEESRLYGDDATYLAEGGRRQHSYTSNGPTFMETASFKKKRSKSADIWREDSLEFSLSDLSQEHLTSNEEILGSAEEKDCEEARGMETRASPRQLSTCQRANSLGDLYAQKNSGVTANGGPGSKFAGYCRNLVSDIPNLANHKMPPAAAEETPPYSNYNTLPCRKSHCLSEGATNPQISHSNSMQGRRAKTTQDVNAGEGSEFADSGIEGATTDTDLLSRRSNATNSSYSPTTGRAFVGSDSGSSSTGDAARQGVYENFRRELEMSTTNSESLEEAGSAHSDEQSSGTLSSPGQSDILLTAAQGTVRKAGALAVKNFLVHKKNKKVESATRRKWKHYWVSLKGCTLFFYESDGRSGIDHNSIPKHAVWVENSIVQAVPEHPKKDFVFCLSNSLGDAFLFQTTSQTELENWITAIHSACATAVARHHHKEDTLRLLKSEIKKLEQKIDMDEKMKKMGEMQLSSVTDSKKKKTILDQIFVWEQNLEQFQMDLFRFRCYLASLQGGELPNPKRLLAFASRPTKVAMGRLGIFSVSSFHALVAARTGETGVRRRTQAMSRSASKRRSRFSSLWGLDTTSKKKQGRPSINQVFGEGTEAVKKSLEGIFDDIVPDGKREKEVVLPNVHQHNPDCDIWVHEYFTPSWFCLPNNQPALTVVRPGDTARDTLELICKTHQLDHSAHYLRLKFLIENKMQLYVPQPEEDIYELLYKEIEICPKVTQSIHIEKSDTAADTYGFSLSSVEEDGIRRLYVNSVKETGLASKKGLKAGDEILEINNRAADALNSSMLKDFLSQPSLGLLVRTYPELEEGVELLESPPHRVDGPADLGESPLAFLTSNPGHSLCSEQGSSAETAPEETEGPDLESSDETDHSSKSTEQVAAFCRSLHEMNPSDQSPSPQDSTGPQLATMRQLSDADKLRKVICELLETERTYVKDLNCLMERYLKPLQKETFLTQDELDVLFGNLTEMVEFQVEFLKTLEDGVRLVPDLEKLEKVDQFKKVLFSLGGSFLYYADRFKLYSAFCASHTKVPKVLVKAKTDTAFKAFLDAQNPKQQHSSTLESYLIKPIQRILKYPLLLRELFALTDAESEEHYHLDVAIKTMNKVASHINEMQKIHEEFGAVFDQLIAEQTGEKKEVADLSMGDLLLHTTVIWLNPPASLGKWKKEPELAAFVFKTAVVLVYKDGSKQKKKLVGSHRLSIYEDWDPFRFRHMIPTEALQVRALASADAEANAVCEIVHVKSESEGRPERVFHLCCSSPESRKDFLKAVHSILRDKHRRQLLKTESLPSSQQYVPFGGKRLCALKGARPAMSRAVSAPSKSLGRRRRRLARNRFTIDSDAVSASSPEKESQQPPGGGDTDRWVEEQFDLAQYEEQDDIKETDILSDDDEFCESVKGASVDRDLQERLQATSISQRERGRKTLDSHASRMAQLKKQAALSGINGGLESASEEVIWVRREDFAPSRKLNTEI

Homo sapiens [21] = species: Homo sapiens; experiment: Selectivity index, ratio of binding affinity to AKT PH-domain (unknown origin) by SPR spectroscopy to binding affinity to CNKSR1 PH-domain (unknown origin) by SPR spectroscopy
[22] = target: T4, 3-phosphoinositide-dependent protein kinase 1 (Homo sapiens) (UniProt O15530); experiment: Binding affinity to PDPK1 PH-domain (unknown origin) at 0.01 to 50 uM by SPR spectroscopy
T4 sequence (whole entry): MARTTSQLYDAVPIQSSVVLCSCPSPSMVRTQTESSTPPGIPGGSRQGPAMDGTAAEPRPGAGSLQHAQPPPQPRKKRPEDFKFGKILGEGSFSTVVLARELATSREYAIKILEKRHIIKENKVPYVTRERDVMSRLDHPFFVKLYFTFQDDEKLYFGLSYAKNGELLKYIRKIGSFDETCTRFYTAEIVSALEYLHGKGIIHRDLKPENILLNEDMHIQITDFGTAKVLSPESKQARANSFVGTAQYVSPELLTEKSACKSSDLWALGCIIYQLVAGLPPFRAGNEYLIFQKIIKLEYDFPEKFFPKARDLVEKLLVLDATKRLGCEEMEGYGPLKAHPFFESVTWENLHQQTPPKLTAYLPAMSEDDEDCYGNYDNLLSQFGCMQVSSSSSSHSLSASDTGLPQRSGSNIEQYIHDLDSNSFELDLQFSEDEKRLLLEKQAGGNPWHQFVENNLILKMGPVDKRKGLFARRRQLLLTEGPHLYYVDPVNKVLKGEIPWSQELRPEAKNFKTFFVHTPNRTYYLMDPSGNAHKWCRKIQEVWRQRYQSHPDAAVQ

NCI-H1373 = experiment: Growth inhibition of human NCI-H1373 cells relative to control; type: functional, cell-based
Homo sapiens [23] = species: Homo sapiens; experiment: Selectivity index, ratio of binding affinity to TIAM1 PH-domain (unknown origin) by SPR spectroscopy to binding affinity to CNKSR1 PH-domain (unknown origin) by SPR spectroscopy
Homo sapiens [24] = species: Homo sapiens; experiment: Selectivity index, ratio of binding affinity to PDPK1 PH-domain (unknown origin) by SPR spectroscopy to binding affinity to CNKSR1 PH-domain (unknown origin) by SPR spectroscopy

CCOC(=O)/C=C/c1cc(NS(=O)(=O)c2cccs2)c2c(c1O)OCO2
Kd (Pleckstrin): 261 µM

O=C(O)CCc1ccc(-c2ccc(Br)cc2)n1CCC(=O)O
Activity [1]: Active
Kd ([2]; read-out: Kd): 0.196 nM

Cc1ccc(-c2csc(Cn3nc(CC4OCC(=O)O4)c4ccccc4c3=O)n2)cc1 (stereo not drawn)
IC50 [3]: 56 µM
inhibition [4]: Active
inhibition [5]: Active
IC50 (NCI-H2122 [6]): > 100 µM
inhibition [7]: Active
IC50 (HCC95): 40 µM
IC50 (HCC515 [8]): 34 µM

O=C(O)c1ccc2c(c1)C1C=CCC1C(C(=O)O)N2 (stereo not drawn)
Kd ([1]; read-out: Kd): 0.474 nM
Kd ([2]; read-out: Kd): 5340 nM

Cc1ccc(-c2csc(Cn3nc(CC(=O)O)c4ccccc4c3=O)n2)cc1
half-life [9]: 72 min
half-life [10]: 780 min
IC50 [3]: > 100 µM
inhibition [4]: Active
Cmax [11]: 230 µM
inhibition [5]: Active
IC50 (NCI-H2122 [6]): > 100 µM
inhibition [7]: Active
IC50 (HCC95): > 100 µM
IC50 (HCC515 [8]): > 100 µM

O=C(O)COc1cc(OCC(=O)O)c2c3c(c(=O)oc2c1)CCCC3
Activity [1]: Active
Kd ([2]; read-out: Kd): 1130 nM

Cc1ccc(-c2csc(Cn3nc(CC4OCCCO4)c4ccccc4c3=O)n2)cc1
inhibition [12]: Active
half-life [9]: 260 min
inhibition [13]: Active
inhibition [14]: Active
IC50 [3]: 38 µM
inhibition [4]: Active
inhibition [5]: Active
IC50 (NCI-H2122 [6]): > 100 µM
inhibition [7]: Active
TGI (A549 [15]): Active
TGI (A549 [16]): Active
IC50 (HCC95): 45 µM
IC50 (HCC515 [8]): 37 µM

O=C(O)CSc1cc(NS(=O)(=O)c2cccs2)c2ccccc2c1O
Activity [1]: Active
IC50 [3]: 7 µM
IC50 (NCI-H2122 [6]): 34 µM
Kd ([2]; read-out: Kd): 3640 nM
IC50 (HCC95): 13 µM
IC50 (HCC515 [8]): 11 µM

Nc1cccc(-c2cc(C(=O)O)c3cc(Cl)ccc3n2)c1
Activity [1]: Active

Cc1ccc(-c2csc(Cn3nc(CC(=O)N4CCN(C)CC4)c4ccccc4c3=O)n2)cc1
half-life [9]: 327 min

CCOC(=O)/C=C/c1c(O)c(OC)cc(NS(=O)(=O)c2cccs2)c1SC
Kd (Pleckstrin): 300 µM

Cc1ccc(-c2csc(Cn3nc(CC=O)c4ccccc4c3=O)n2)cc1
half-life [9]: 35 min

Cc1c(Cl)ccc2c(C(=O)O)cc(-c3cccnc3)nc12
Activity [1]: Active

CCNC(=O)Cc1nn(Cc2nc(-c3ccc(C)cc3)cs2)c(=O)c2ccccc12
half-life [9]: 28 min
TGI (A549 [16]): Active

COc1c(/C=C/C(=O)O)cc(NS(=O)(=O)c2cccs2)c2c1OCO2
Kd [1]: Not Active
Kd [2]: Not Active

Cc1ccc(-c2csc(Cn3nc(Cc4nccs4)c4ccccc4c3=O)n2)cc1
half-life [9]: 245 min
IC50 [3]: 49 µM
inhibition [4]: Active
inhibition [5]: Active
IC50 (NCI-H2122 [6]): 26 µM
inhibition [7]: Active
IC50 (HCC95): 46 µM
IC50 (HCC515 [8]): 28 µM

CC(=O)Nc1cccc(-n2nnc(SCC(=O)c3cc(-c4ccccc4)no3)n2)c1
growth inhibition (GI) (HCC515 [17]): Active
growth inhibition (GI) (NCI-H2122 [18]): Active
growth inhibition (GI) (A549 [19]): Active
Activity [20]: inactive
Ratio (Homo sapiens [21]): 50 to 100
Activity [1]: inactive
Activity [22]: inactive
growth inhibition (GI) (NCI-H1373): Active
Ratio (Homo sapiens [23]): 50 to 100
Ratio (Homo sapiens [24]): 50 to 100

Cc1ccc(-c2nc(SCC(=O)O)c3c(=O)n(C)c(=O)n(C)c3n2)cc1
Kd ([1]; read-out: Kd): 1280 nM
Kd ([2]; read-out: Kd): 1010 nM

COc1ccc(OC)c(-c2cc(C(=O)O)c3nc(C)[nH]c3n2)c1
Activity [1]: Active
